# Experiments:
# [1] = system: Boophilus microplus; assay: Boophilus microplus test (BOOPMI injection), Example 11; format: in vivo; conditions: application rate 20 μg/animal, injected into abdomen, after 7 days; for pest or weed control at 0.02 mg: Rhipicephalus microplus, 168 h, read-out: efficacy in % (fertile eggs laid)
# Method in brief: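 Efficacy rated from fertile egg laying: 100% means none of the ticks laid fertile eggs, read after 7 days. Compound, dissolved and diluted in DMSO, was delivered by abdominal injection, and ticks were kept in dishes under climate control.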
# [2] = system: Musca domestica adults; assay: Musca domestica test (MUSCDO), Example 14; format: in vivo; conditions: application rate 100 ppm, treated sponge, after 2 days
# Experimental: Musca domestica Test (MUSCDO) • Solvent: dimethyl sulphoxide To prepare an appropriate active ingredient formulation, 10 mg of active ingredient are mixed with 0.5 ml of dimethyl sulphoxide, and the concentrate is diluted with water to the desired concentration. Vessels containing a sponge which has been treated with the active ingredient formulation of the desired concentration are populated with Musca domestica adults. After 2 days, the kill rate in % is determined. 100% means that all flies were killed; 0% means that no flies were killed.
# [3] = system: Boophilus microplus; assay: Boophilus microplus test (BOOPMI injection), Example 1; format: in vivo; conditions: application rate 20 μg/animal, injected into abdomen, after 7 days
# Experimental: Boophilus microplus Test (BOOPMI Injection) • Solvent: dimethyl sulphoxide To prepare an active ingredient formulation, 10 mg of active ingredient are mixed with 0.5 ml of solvent and the concentrate is diluted with water to the desired concentration. The active ingredient solution was injected into the abdomen (Boophilus microplus), and the animals were transferred to dishes and stored in a climate-controlled room. The efficacy was assessed by the number of fertile eggs laid. After 7 days, the efficacy in % is determined. 100% means that no tick laid fertile eggs.
# [4] = system: armyworm (Spodoptera frugiperda); assay: Spodoptera frugiperda test (SPODFR spray treatment), Example 15; format: in vivo; conditions: maize leaf discs sprayed, after 7 days; for pest or weed control at 500 g/ha: Spodoptera frugiperda, foliar, 168 h, read-out: efficacy in %
# Method in brief: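 Caterpillars placed on dried, sprayed Zea mays leaf discs; formulation of acetone, dimethylformamide and emulsifier diluted with emulsifier-containing water to test concentration. Percent kill scored on day 7.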
# [5] = system: mustard beetle (Phaedon cochleariae); assay: Phaedon test (PHAECO spray treatment), Example 16; format: in vivo; conditions: Phaedon cochleariae, foliar, china cabbage leaf discs sprayed, after the desired time, read-out: efficacy in %; for pest or weed control at 500 g/ha: application rate 500 g/ha
# Experimental: Phaedon Test (PHAECO Spray Treatment)
# (§1) • Solvent: 78.0 parts by weight of acetone • 1.5 parts by weight of dimethylformamide • Emulsifier: 0.5 part by weight of alkylaryl polyglycol ether
# To prepare an appropriate active ingredient formulation, 1 part by weight of active ingredient is mixed with the stated amounts of solvent and emulsifier, and the concentrate is diluted with emulsifier-containing water to the desired concentration. […]
# After the desired time, the efficacy in % is determined. 100% means that all beetle larvae were killed; 0% means that no beetle larvae were killed.
# [6] = logP by HPLC on reverse-phase column (EEC Directive 79/831 Annex V.A8); format: physicochemical; conditions: for chromatographic logP: reverse-phase C18 HPLC column
# Experimental: The logP values reported in the above Tables and Preparation Examples were determined according to EEC Directive 79/831 Annex V.A8 by HPLC (High Performance Liquid Chromatography) on a reverse-phase column (C18). Temperature 43° C.
# [7] = system: Ctenocephalides felis; assay: Ctenocephalides felis oral (CTECFE), Example 2; format: in vivo; conditions: application rate 20 ppm in citrated cow's blood, after 2 days
# Experimental: Ctenocephalides felis Oral ([…]) • Solvent: 1 part by weight of dimethyl sulphoxide For the purpose of preparing an active ingredient formulation, 10 mg of active ingredient are mixed with 0.5 ml of dimethyl sulphoxide. A portion of the concentrate was diluted with citrated cow's blood and the desired concentration was prepared. 20 unfed adult fleas (Ctenocephalides felis) are placed into a chamber sealed at the top and bottom with gauze. A metal cylinder with its lower end sealed with Parafilm is placed onto the chamber. The cylinder contains the blood-active ingredient preparation, which can be consumed by the fleas through the Parafilm membrane. After 2 days, the kill rate in % is determined. 100% means that all fleas were killed; 0% means that no fleas were killed.
# [8] = system: mustard beetle (Phaedon cochleariae); assay: Phaedon test (PHAECO spray treatment), Example 7; format: in vivo; conditions: application rate 20 g/ha, china cabbage leaf discs sprayed, after 7 days
# Method in brief: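 Spray formulation (acetone/DMF with alkylaryl polyglycol ether, diluted in emulsifier-containing water) applied to Chinese cabbage leaf discs, which were dried and then stocked with mustard beetle larvae. Efficacy scored at 7 days as % larvae killed (100% all, 0% none).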
# [9] = system: red spider mite (Tetranychus urticae); assay: Tetranychus test, OP-resistant (TETRUR spray treatment), Example 8; format: in vivo; conditions: application rate 20 g/ha, common bean leaf discs sprayed, after 6 days
# Experimental: Tetranychus Test, OP-resistant (TETRUR Spray Treatment)
# as §1
# To prepare an active ingredient formulation, 1 part by weight of active ingredient is mixed with the stated amounts of solvent and emulsifier, and the concentrate is diluted with emulsifier-containing water to the desired concentration.
# Leaf discs from the common bean (Phaseolus vulgaris) infested by all stages of the red spider mite (Tetranychus urticae) are sprayed with an active ingredient formulation of the desired concentration.
# After 6 days, the efficacy in % is determined. 100% means that all spider mites were killed; 0% means that no spider mites were killed.
# [10] = system: green peach aphid (Myzus persicae); assay: Myzus test (MYZUPE spray treatment), Example 17; format: in vivo; conditions: china cabbage leaf discs sprayed, after 6 days
# Method in brief: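 Efficacy recorded at 6 days as % kill, where 100% means every aphid dead and 0% none. Spray applied to Brassica pekinensis leaf discs bearing mixed-stage aphids; active ingredient dissolved in acetone with dimethylformamide and emulsifier, then diluted with emulsifier-containing water.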
# [11] = pH 2.7, HPLC, C18 reverse phase, 43° C., acidic range pH 2.7, calibration with alkan-2-ones
Compound,efficacy in % (fertile eggs laid) [1],kill rate in % (efficacy) [2],efficacy in % (fertile eggs laid) [3],logP ([6]; HPLC-MS),further results
Cn1c(C(=O)NC(c2cccc(C(F)(F)F)c2)C(F)(F)F)cc2cc(C(=O)NC3CC3)c(Cl)cc21 (racemic) [Ic-25],100%,100%,,,
"N#Cc1ccc(/C=C/C(=O)NC(c2cccc(C(F)(F)F)c2)C(F)(F)F)cc1 (stereo not drawn) [Ia-8, (2E)-3-(4-Cyanophenyl)-N-{2,2,2-trifluoro-1-[3-(trifluoromethyl)phenyl]ethyl}acrylamide]",,,100%,,"pest or weed control at 0.02 mg [1]: 100%; pest or weed control at 500 g/ha ([4]; application rate 500 g/ha): 100%; pest or weed control at 500 g/ha [5]: 100%; chromatographic logP [6, 11]: 3.54"
O=C(/C=C/c1ccc(C(=O)NCC(F)(F)F)c(Cl)c1)NC(c1cccc(C(F)(F)F)c1)C(F)(F)F (stereo not drawn) [Ia-19],100%,100%,,HPLC-MS: logP = 3.56; mass,
O=C(/C=C/c1ccc(C(=O)NCc2ccccn2)c(C(F)(F)F)c1)NC(c1ccc(Cl)c(Cl)c1)C(F)(F)F (stereo not drawn) [Ia-32],100%,,100%,HPLC-MS: logP = 2.98; mass,kill rate in % (efficacy) [7]: 100%; efficacy in % ([4]; application rate 500 g/ha): 83%
N#Cc1ccc(/C=C/C(=O)NC(c2cccc(C(F)(F)F)c2)C(F)(F)F)cc1Cl (stereo not drawn) [Ia-44],100%,,100%,HPLC-MS: logP = 3.91; mass,
"N#Cc1ccc(/C=C/C(=O)NC(c2cccc(C(F)(F)F)c2)C(F)(F)F)cc1C(F)(F)F (stereo not drawn) [Ia-46, (2E)-3-[4-cyano-3-(trifluoromethyl)phenyl]-N-{2,2,2-trifluoro-1-[3-(trifluoromethyl)phenyl]ethyl}acrylamide]",,,100%,,pest or weed control at 0.02 mg [1]: 100%; pest or weed control at 500 g/ha ([4]; application rate 500 g/ha): 100%; pest or weed control at 500 g/ha [5]: 100%; chromatographic logP ([6]; HPLC-MS): 4.06
O=C(/C=C/c1ccc(C(=O)NCC(F)F)c(C(F)(F)F)c1)NC(c1cccc(C(F)(F)F)c1)C(F)(F)F (stereo not drawn) [Ia-57],100%,100%,,HPLC-MS: logP = 3.48; mass,efficacy in % [8]: 100%; efficacy in % [9]: 90%; efficacy in % ([10]; application rate 500 g/ha): 100%
COCCNC(=O)c1ccc(/C=C/C(=O)NC(c2cccc(C(F)(F)F)c2)C(F)(F)F)cc1C(F)(F)F (stereo not drawn) [Ia-58],100%,,100%,HPLC-MS: logP = 3.12; mass,kill rate in % (efficacy) [7]: 98%; efficacy in % [8]: 100%; efficacy in % [9]: 90%; efficacy in % ([4]; application rate 500 g/ha): 83%; efficacy in % ([10]; application rate 500 g/ha): 100%
O=C(/C=C/c1ccc(C(=O)NC2CCCC2C(F)(F)F)c(C(F)(F)F)c1)NC(c1cccc(C(F)(F)F)c1)C(F)(F)F (stereo not drawn) [Ia-77],100%,,100%,HPLC-MS: logP = 3.93; mass,efficacy in % [9]: 80%
O=C(/C=C/c1ccc(C(=O)Nc2ccc(Cl)cn2)c(C(F)(F)F)c1)NC(c1cccc(C(F)(F)F)c1)C(F)(F)F (stereo not drawn) [Ia-122],100%,90%,,HPLC-MS: logP = 4.3; mass,
"O=C(/C=C/c1ccc(-c2noc(C3CC3)n2)c(C(F)(F)F)c1)NC(c1cccc(C(F)(F)F)c1)C(F)(F)F (stereo not drawn) [Ia-123, (2E)-3-[4-(5-Cyclopropyl-1,2,4-oxadiazol-3-yl)-3-(trifluoromethyl)phenyl]-N-{2,2,2-trifluoro-1-[3-(trifluoromethyl)phenyl]ethyl}acrylamide]",,,,,"pest or weed control at 0.02 mg [1]: 100%; pest or weed control at 500 g/ha ([4]; application rate 500 g/ha): 100%; pest or weed control at 500 g/ha [5]: 100%; chromatographic logP [6, 11]: 4.53"
N#CC1CC1NC(=O)c1ccc(/C=C/C(=O)NC(c2cccc(C(F)(F)F)c2)C(F)(F)F)cc1C(F)(F)F (stereo not drawn) [Ia-140],100%,100%,,HPLC-MS: logP = 3.37; mass,efficacy in % ([4]; application rate 100 g/ha): 100%; efficacy in % ([10]; application rate 100 g/ha): 90%
CC(C#N)NC(=O)c1ccc(/C=C/C(=O)NC(c2cccc(C(F)(F)F)c2)C(F)(F)F)cc1C(F)(F)F (stereo not drawn) [Ia-141],100%,100%,,HPLC-MS: logP = 3.39; mass,efficacy in % ([4]; application rate 100 g/ha): 100%; efficacy in % ([10]; application rate 100 g/ha): 100%
CC(CC1CC1)NC(=O)c1ccc(/C=C/C(=O)NC(c2cccc(C(F)(F)F)c2)C(F)(F)F)cc1C(F)(F)F (stereo not drawn) [Ia-148],100%,90%,,HPLC-MS: logP = 4.24; mass,efficacy in % ([4]; application rate 100 g/ha): 100%
CC(C)ONC(=O)c1ccc(/C=C/C(=O)NC(c2cccc(C(F)(F)F)c2)C(F)(F)F)cc1C(F)(F)F (stereo not drawn) [Ia-149],100%,100%,,HPLC-MS: logP = 3.48; mass,efficacy in % ([4]; application rate 100 g/ha): 100%
C#CCNC(=O)c1ccc(/C=C/C(=O)NC(c2cccc(C(F)(F)F)c2)C(F)(F)F)cc1Cl (stereo not drawn) [Ia-151],100%,80%,,HPLC-MS: logP = 3.2; mass,
CC(NC(=O)c1ccc(/C=C/C(=O)NC(c2cccc(C(F)(F)F)c2)C(F)(F)F)cc1Cl)C(F)(F)F (stereo not drawn) [Ia-158],100%,100%,,HPLC-MS: logP = 3.78; mass,efficacy in % ([4]; application rate 100 g/ha): 100%; efficacy in % ([10]; application rate 100 g/ha): 80%
O=C(/C=C/c1ccc(C(=O)NCC2CC2)c(Cl)c1)NC(c1cccc(C(F)(F)F)c1)C(F)(F)F (stereo not drawn) [Ia-163],100%,100%,,HPLC-MS: logP = 3.54; mass,efficacy in % ([10]; application rate 100 g/ha): 100%
"O=C(/C=C/c1ccc(C(=O)NC2C[S+]([O-])C2)c(Cl)c1)NC(c1cccc(C(F)(F)F)c1)C(F)(F)F (stereo not drawn) [Ia-167, 2-chloro-N-(1-oxidothietan-3-yl)-4-[(1E)-3-oxo-3-({2,2,2-trifluoro-1-[3-(trifluoromethyl)phenyl]ethyl}amino)prop-1-en-1-yl]benzamide]",,,,,"pest or weed control at 100 g/ha ([5]; application rate 100 g/ha): 100%; efficacy in % ([10]; application rate 100 g/ha): 80%; chromatographic logP [6, 11]: 2.63"
